# Measured values published in publication PMC8237267 (Journal of Medicinal Chemistry, 2021).
# What was measured:
# HDAC6 = target: T1, HDAC6 (Homo sapiens, UniProt Q9UBN7); test: Determination of Ki (Kon kinetics); format: biochemical; settings: time-dependent inhibition Kon experiment
# T1 sequence (Q9UBN7 1-1215): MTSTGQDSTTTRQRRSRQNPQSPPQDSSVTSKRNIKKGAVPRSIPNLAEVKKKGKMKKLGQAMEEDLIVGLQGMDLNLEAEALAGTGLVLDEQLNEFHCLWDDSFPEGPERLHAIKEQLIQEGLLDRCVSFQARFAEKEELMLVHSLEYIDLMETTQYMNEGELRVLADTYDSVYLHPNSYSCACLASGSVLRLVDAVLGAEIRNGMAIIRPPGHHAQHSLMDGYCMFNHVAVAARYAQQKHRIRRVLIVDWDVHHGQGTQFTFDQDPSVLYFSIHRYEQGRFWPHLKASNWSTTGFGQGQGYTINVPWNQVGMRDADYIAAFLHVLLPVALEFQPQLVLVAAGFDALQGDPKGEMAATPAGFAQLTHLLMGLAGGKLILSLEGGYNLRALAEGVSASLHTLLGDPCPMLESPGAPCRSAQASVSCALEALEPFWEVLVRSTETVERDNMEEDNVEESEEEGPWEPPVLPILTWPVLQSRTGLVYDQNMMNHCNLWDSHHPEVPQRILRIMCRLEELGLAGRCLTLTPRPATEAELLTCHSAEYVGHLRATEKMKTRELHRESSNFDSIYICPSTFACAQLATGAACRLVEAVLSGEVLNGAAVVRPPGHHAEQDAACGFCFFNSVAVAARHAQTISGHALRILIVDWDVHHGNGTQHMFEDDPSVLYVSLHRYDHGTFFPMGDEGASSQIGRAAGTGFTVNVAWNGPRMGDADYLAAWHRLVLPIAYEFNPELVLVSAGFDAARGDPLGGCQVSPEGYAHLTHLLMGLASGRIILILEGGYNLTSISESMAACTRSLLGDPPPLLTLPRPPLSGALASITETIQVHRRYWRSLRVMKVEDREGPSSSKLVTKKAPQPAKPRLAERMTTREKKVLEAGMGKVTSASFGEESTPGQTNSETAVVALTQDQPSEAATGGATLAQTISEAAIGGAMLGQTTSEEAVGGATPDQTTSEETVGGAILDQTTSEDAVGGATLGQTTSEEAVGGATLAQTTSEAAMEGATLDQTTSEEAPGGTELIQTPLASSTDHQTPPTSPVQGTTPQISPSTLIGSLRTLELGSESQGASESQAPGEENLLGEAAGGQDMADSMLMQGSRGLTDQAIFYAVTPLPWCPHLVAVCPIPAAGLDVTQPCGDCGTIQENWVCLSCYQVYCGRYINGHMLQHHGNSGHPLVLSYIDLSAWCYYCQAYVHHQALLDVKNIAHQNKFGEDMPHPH
# Method: Serial dilutions of compound were mixed with 3 nM HDAC6 enzyme and substrate peptide in assay buffer. Progress curves were acquired without preincubation for ∼5 h on a Labchip3000 instrument. Progress curves in the presence of compound were fit with the following equation: ((A + (Vs × x)) + (((Vo – Vs) × (1 – exp((−1 × Kobs) × t)))/Kobs)). To determine observed rate of inhibition, Vo was locked to that in control (Vi, DMSO only). Fractional steady state velocity (Vs/Vi) and Kobs values were plotted against [compound] to determine Ki and residence time.
# [1] = system: primary T-PLL patient samples; test: Drug combination synergy in primary T-PLL patient samples; format: cell-based, human
# From the text: Primary T-PLL cells were isolated from peripheral blood (PB) of 10 T-PLL patients. All patients were diagnosed according to WHO criteria based on clinical features, immunophenotyping (flow cytometry and histochemisty; including TCL1 expression), and FISH/karyotyping.[71],[72] Samples were obtained from patients under IRB-approved protocols following written informed consent according to the Declaration of Helsinki. Collection and use of patient material have been approved for research purpose by the ethics committee of the University Hospital of Cologne (EudraCT-Nr.: #2008-001421-34 and AZ11-319) and Helsinki (303/13/03/01/2011).
# PB mononuclear cells (PBMCs) of T-PLL samples were obtained by density gradient centrifugation (Histopaque; Sigma-Aldrich). All drug screening in primary T-PLL patient samples were conducted as previously described.[34],[73]
# Hut78 = test: Cytotoxicity assay (Cell Titer-Blue, 72 h); format: cell-based; settings: Homo sapiens, CTCL, one representative of three experiments, read-out: IC50 (heat map) Hut78
# Method: (§1) The PTCL cell lines, KHYG-1, NK-92, SNK6, DERL-2, Mac1, 1305 Myla, Hut78, SU-DHL-1 or T-ALL cell lines SUP-T11, DND-41, and MOLT4 were maintained in RPMI-1640 supplemented with 10% FBS, 0.06 g/L penicillin/0.1 g/L streptomycin (Pen/Strep, Gibco), and 2 mM L-glutamine (Gibco). Culture media of KHYG-1, NK-92, SNK6, and DERL-2 cells was additionally supplemented with 2.5 ng/mL recombinant human IL-2 (ImmunoTools GmbH, Germany). The authenticity of PTCL cell lines was confirmed by analysis of highly polymorphic short tandem repeat loci (STR) using the PowerPlex 16 HS System (Promega; performed by Microsynth AG, Switzerland).
# (§2) Cells were plated in 96-well flat-bottom sterile culture plates with low-evaporation lids (Costar #3997). The inhibitors and a vehicle control (0.5% DMSO) were added to the cells following 24 h. After 72 h, Cell Titer-Blue (Promega #G808A) was added to each well (20 μL), and the fluorescence was measured at 560/590 nm using a Cytation S63 spectrophotometer (BioTek) or a GloMax Discover Microplate Reader (Promega, Madison, WI, USA). GraphPad Prism 6.0 (GraphPad Software Inc.) was used to determine the IC50 values.
# Mac1 = test: Cytotoxicity assay (Cell Titer-Blue, 72 h); format: cell-based; settings: ALK- ALCL; one representative of three experiments; read-out: IC50 (heat map) Mac1
# Method: as §1, §2
# HDAC3 = target: T2, HDAC3 (Homo sapiens, UniProt O15379); test: HDAC EMSA activity assay (Nanosyn); format: biochemical; settings: read-out: IC50 HDAC3
# T2 construct: The full-length human HDACs were recombinantly expressed and purified from SF9 insect cells; host or cells: SF9 insect cells
# T2 sequence (O15379 whole entry): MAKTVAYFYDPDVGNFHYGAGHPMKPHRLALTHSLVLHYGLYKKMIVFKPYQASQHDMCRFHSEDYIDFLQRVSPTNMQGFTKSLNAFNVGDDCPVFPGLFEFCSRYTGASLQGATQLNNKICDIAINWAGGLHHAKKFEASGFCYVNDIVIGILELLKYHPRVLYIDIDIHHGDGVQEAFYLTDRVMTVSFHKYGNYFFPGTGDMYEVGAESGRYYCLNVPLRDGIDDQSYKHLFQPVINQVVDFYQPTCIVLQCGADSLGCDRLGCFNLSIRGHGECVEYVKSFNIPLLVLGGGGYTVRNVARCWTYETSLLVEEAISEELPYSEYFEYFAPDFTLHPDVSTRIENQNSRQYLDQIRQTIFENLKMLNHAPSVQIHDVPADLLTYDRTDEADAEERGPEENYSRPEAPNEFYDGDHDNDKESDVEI
# T2 sequence (Q9Y618 395-489 partner limits assumed): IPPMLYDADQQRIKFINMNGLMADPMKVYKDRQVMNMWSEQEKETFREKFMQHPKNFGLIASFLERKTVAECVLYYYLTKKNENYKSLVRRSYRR
smiles,measurement,setting,value
"O=C(NO)c1ccc(CN(C2CC2)S(=O)(=O)c2cc(F)c(F)c(F)c2F)cc1 [Compound 14, 4-(((N-Cyclopropyl-2,3,4,5-tetrafluorophenyl)sulfonamido)methyl)-N-hydroxybenzamide]",Ki,HDAC6,0.0173 µM
same,"combination with idasanutlin, bendamustine and venetoclax",[1],All combinations revealed synergistic relationships in patient samples
same,IC50,Hut78,16.2 µM
same,IC50,Mac1,9.6 µM
same,IC50,HDAC3,> 1 µM
